Measurements: patent EP4806911A1, “TRIPLE AGONIST COMPOUND” (Chengdu Aoda Biotechnology Co., Ltd, priority 2023, dated 2025)

Experiments:
Format in all cases: cell-based
[1] = target: T1, GIPR (Homo sapiens, UniProt P48546); assay: GIP activity test (cAMP, chemiluminescence); settings: CHO-K1 cell line stably expressing GIPR; relative luminescence units; read-out: GIP [EC50(pmol)]
T1 construct: expressed in transfected cells; host or cells: CHO-K1
T1 sequence (P48546 22-466): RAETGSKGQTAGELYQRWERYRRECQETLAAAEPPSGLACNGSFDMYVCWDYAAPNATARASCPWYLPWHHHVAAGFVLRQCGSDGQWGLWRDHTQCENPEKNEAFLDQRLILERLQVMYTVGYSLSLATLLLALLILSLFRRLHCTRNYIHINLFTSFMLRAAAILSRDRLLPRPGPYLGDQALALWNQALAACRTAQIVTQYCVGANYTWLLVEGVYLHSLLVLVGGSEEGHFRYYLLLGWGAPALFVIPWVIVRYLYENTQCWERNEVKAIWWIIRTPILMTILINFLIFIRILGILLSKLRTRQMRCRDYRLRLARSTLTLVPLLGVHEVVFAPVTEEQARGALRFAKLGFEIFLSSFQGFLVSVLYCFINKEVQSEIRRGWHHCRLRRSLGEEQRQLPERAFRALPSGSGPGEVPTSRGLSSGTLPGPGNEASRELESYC
Description: (§1) Upon stimulation by a specific agonist, GIPR activates the intracellular adenylate cyclase signaling pathway, resulting in an increase in cAMP levels and ultimately leading to insulin production and secretion. A cell line stably transfected with GIPR was stimulated with test compounds, thereby rapidly increasing intracellular cAMP levels. The relative luminescence units (RLU) of cells stimulated at various concentrations were measured by a chemiluminescence method, and the EC50 value of the agonist was calculated accordingly. This activity assay method is currently a commonly used method for evaluating GIP receptor agonist activity both domestically and internationally. A CHO-K1 cell line stably expressing GIPR was used. The stable cells were stimulated with agonists at different concentrations, and the relative luminescence units after stimulation at each concentration were measured to calculate the EC50 value of the agonist.

[2] = target: T2, GCG-R (Homo sapiens, UniProt P47871); assay: GCG activity test (cAMP, chemiluminescence); settings: CHO-K1 cell line stably expressing GCG-R; relative luminescence units; read-out: GCG [EC50(pmol)]
T2 construct: expressed in transfected cells; host or cells: CHO-K1
Description: as §1, with “GCG-R” for “GIPR”, “GCG” for “GIP”

[3] = target: T3, GLP-1R (Homo sapiens, UniProt P43220); assay: GLP-1 activity test (cAMP, chemiluminescence); settings: CHO-K1 cell line stably expressing GLP-1R; relative luminescence units; read-out: GLP-1 [EC50(pmol)]
T3 construct: expressed in transfected cells; host or cells: CHO-K1
Description: as §1, with “GLP-1R” for “GIPR”, “test” for “assay”, “GLP-1” for “GIP”

T3 sequence (P43220 24-463, species assumed): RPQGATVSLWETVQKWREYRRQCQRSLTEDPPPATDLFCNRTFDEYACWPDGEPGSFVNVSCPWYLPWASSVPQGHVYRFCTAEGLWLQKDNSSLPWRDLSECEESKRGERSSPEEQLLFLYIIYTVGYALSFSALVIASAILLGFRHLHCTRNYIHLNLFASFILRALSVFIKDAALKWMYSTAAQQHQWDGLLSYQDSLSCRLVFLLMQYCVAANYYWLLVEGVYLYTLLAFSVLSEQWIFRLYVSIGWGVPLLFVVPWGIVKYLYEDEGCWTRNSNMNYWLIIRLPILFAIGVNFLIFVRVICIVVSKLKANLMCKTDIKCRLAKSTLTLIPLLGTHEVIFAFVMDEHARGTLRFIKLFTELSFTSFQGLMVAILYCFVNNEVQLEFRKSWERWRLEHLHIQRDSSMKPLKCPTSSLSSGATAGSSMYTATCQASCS
T2 sequence (P47871 26-477, species assumed): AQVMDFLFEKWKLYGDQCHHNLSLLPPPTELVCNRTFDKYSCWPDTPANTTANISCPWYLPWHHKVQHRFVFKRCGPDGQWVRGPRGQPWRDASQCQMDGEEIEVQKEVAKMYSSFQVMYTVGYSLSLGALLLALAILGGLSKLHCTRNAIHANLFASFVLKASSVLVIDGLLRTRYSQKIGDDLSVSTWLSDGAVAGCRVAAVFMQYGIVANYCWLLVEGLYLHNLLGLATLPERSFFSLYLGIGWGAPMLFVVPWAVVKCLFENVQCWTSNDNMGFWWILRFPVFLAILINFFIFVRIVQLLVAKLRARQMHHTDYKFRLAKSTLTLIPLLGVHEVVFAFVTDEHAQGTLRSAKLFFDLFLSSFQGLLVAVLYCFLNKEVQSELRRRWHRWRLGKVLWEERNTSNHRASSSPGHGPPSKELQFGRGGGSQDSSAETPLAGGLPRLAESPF

Structure (SMILES) | EC50 [1] [nM] | EC50 [2] [nM] | EC50 [3] [nM]
CC[C@H](C)[C@H](NC(=O)[C@H](Cc1ccccc1)NC(=O)[C@H](C)NC(=O)C(C)(C)NC(=O)[C@H](CCC(N)=O)NC(=O)[C@H](C)NC(=O)[C@H](CCCCNC(=O)COCCOCCNC(=O)COCCOCCNC(=O)CC[C@H](NC(=O)CCCCCCCCCCCCCCCCCCC(=O)O)C(=O)O)NC(=O)[C@H](CCCCN)NC(=O)[C@H](CC(=O)O)NC(=O)[C@H](CC(C)C)NC(=O)C(C)(CC(C)C)NC(=O)[C@@H](NC(=O)[C@H](CO)NC(=O)[C@H](Cc1ccc(O)cc1)NC(=O)[C@H](CC(=O)O)NC(=O)[C@H](CO)NC(=O)[C@@H](NC(=O)C(C)(Cc1ccccc1F)NC(=O)[C@@H](NC(=O)CNC(=O)[C@H](CCC(N)=O)NC(=O)C(C)(C)NC(=O)[C@@H](N)Cc1ccc(O)cc1)[C@@H](C)O)[C@@H](C)O)[C@@H](C)CC)C(=O)N[C@@H](CCC(=O)O)C(=O)N[C@@H](Cc1ccc(O)cc1)C(=O)N[C@@H](CC(C)C)C(=O)N[C@@H](CC(C)C)C(=O)N[C@@H](CCC(=O)O)C(=O)NCC(=O)NCC(=O)N1CCC[C@H]1C(=O)N[C@@H](CO)C(=O)N[C@@H](CO)C(=O)NCC(=O)N[C@@H](C)C(=O)N1CCC[C@H]1C(=O)N1CCC[C@H]1C(=O)N1CCC[C@H]1C(=O)N[C@@H](CO)C(N)=O (stereo partly drawn) [Compound 11] | 0.027 | 0.166 | 0.0536
CC[C@H](C)[C@H](NC(=O)[C@H](Cc1ccccc1)NC(=O)[C@H](C)NC(=O)C(C)(C)NC(=O)[C@H](CCC(N)=O)NC(=O)[C@H](C)NC(=O)[C@H](CCCCNC(=O)COCCOCCNC(=O)COCCOCCNC(=O)CC[C@H](NC(=O)CCCCCCCCCCCCCCCCCCC(=O)O)C(=O)O)NC(=O)[C@H](CCCCN)NC(=O)[C@H](CC(=O)O)NC(=O)[C@H](CC(C)C)NC(=O)C(C)(CC(C)C)NC(=O)[C@@H](NC(=O)[C@H](CO)NC(=O)[C@H](Cc1ccc(O)cc1)NC(=O)[C@H](CC(=O)O)NC(=O)[C@H](CO)NC(=O)[C@@H](NC(=O)C(C)(Cc1ccccc1)NC(=O)[C@@H](NC(=O)CNC(=O)[C@H](CCC(N)=O)NC(=O)C(C)(C)NC(=O)[C@@H](N)Cc1ccc(O)cc1)[C@@H](C)O)[C@@H](C)O)[C@@H](C)CC)C(=O)N[C@@H](CCC(=O)O)C(=O)N[C@@H](Cc1ccc(O)cc1)C(=O)N[C@@H](CC(C)C)C(=O)N[C@@H](CC(C)C)C(=O)N[C@@H](CCC(=O)O)C(=O)NCC(=O)NCC(=O)N1CCC[C@H]1C(=O)N[C@@H](CO)C(=O)N[C@@H](CO)C(=O)NCC(=O)N[C@@H](C)C(=O)N1CCC[C@H]1C(=O)N1CCC[C@H]1C(=O)N1CCC[C@H]1C(=O)N[C@@H](CO)C(N)=O (stereo partly drawn) [Compound 9] | 0.0285 | 0.186 | 0.0612
CC[C@H](C)[C@H](NC(=O)[C@H](Cc1ccccc1)NC(=O)[C@H](C)NC(=O)C(C)(C)NC(=O)[C@H](CCC(N)=O)NC(=O)[C@H](C)NC(=O)[C@H](CCCCNC(=O)COCCOCCNC(=O)CC[C@H](NC(=O)CCCCCCCCCCCCCCCCCCC(=O)O)C(=O)O)NC(=O)[C@H](CCCCN)NC(=O)[C@H](CC(=O)O)NC(=O)[C@H](CC(C)C)NC(=O)[C@](C)(CC(C)C)NC(=O)[C@@H](NC(=O)[C@H](CO)NC(=O)[C@H](Cc1ccc(O)cc1)NC(=O)[C@H](CC(=O)O)NC(=O)[C@H](CO)NC(=O)[C@@H](NC(=O)[C@H](Cc1ccccc1)NC(=O)[C@@H](NC(=O)CNC(=O)[C@H](CCC(N)=O)NC(=O)C(C)(C)NC(=O)[C@@H](N)Cc1ccc(O)cc1)[C@@H](C)O)[C@@H](C)O)[C@@H](C)CC)C(=O)N[C@@H](CCC(=O)O)C(=O)N[C@@H](Cc1ccc(O)cc1)C(=O)N[C@@H](CC(C)C)C(=O)N[C@@H](CC(C)C)C(=O)N[C@@H](CCC(=O)O)C(=O)NCC(=O)NCC(=O)N1CCC[C@H]1C(=O)N[C@@H](CO)C(=O)N[C@@H](CO)C(=O)NCC(=O)N[C@@H](C)C(=O)N1CCC[C@H]1C(=O)N1CCC[C@H]1C(=O)N1CCC[C@H]1C(=O)N[C@@H](CO)C(N)=O [retatrutide, Retatrutide, reference compound] | 0.0342 | 0.523 | 0.046
CC[C@H](C)[C@H](NC(=O)[C@H](Cc1ccccc1)NC(=O)[C@H](C)NC(=O)C(C)(C)NC(=O)[C@H](CCC(N)=O)NC(=O)[C@H](C)NC(=O)[C@H](CCCCNC(=O)COCCOCCNC(=O)CC[C@H](NC(=O)CCCCCCCCCCCCCCCCCCC(=O)O)C(=O)O)NC(=O)[C@H](CCCCN)NC(=O)[C@H](CC(=O)O)NC(=O)[C@H](CC(C)C)NC(=O)C(C)(CC(C)C)NC(=O)[C@@H](NC(=O)[C@H](CO)NC(=O)[C@H](Cc1ccc(O)cc1)NC(=O)[C@H](CC(=O)O)NC(=O)[C@H](CO)NC(=O)[C@@H](NC(=O)C(C)(Cc1ccccc1)NC(=O)[C@@H](NC(=O)CNC(=O)[C@H](CCC(N)=O)NC(=O)C(C)(C)NC(=O)[C@@H](N)Cc1ccc(O)cc1)[C@@H](C)O)[C@@H](C)O)[C@@H](C)CC)C(=O)N[C@@H](CCC(=O)O)C(=O)N[C@@H](Cc1ccc(O)cc1)C(=O)N[C@@H](CC(C)C)C(=O)N[C@@H](CC(C)C)C(=O)N[C@@H](CCC(=O)O)C(=O)NCC(=O)NCC(=O)N1CCC[C@H]1C(=O)N[C@@H](CO)C(=O)N[C@@H](CO)C(=O)NCC(=O)N[C@@H](C)C(=O)N1CCC[C@H]1C(=O)N1CCC[C@H]1C(=O)N1CCC[C@H]1C(=O)N[C@@H](CO)C(N)=O (stereo partly drawn) [Compound 1] | 0.0226 | 0.171 | 0.0502
CC[C@H](C)[C@H](NC(=O)[C@H](Cc1ccccc1)NC(=O)[C@H](C)NC(=O)C(C)(C)NC(=O)[C@H](CCC(N)=O)NC(=O)[C@H](C)NC(=O)[C@H](CCCCNC(=O)COCCOCCNC(=O)CC[C@H](NC(=O)CCCCCCCCCCCCCCCCCCC(=O)O)C(=O)O)NC(=O)[C@H](CCCCN)NC(=O)[C@H](CC(=O)O)NC(=O)[C@H](CC(C)C)NC(=O)C(C)(CC(C)C)NC(=O)[C@@H](NC(=O)[C@H](CO)NC(=O)[C@H](Cc1ccc(O)cc1)NC(=O)[C@H](CC(=O)O)NC(=O)[C@H](CO)NC(=O)[C@@H](NC(=O)C(C)(Cc1ccccc1F)NC(=O)[C@@H](NC(=O)CNC(=O)[C@H](CCC(N)=O)NC(=O)C(C)(C)NC(=O)[C@@H](N)Cc1ccc(O)cc1)[C@@H](C)O)[C@@H](C)O)[C@@H](C)CC)C(=O)N[C@@H](CCC(=O)O)C(=O)N[C@@H](Cc1ccc(O)cc1)C(=O)N[C@@H](CC(C)C)C(=O)N[C@@H](CC(C)C)C(=O)N[C@@H](CCC(=O)O)C(=O)NCC(=O)NCC(=O)N1CCC[C@H]1C(=O)N[C@@H](CO)C(=O)N[C@@H](CO)C(=O)NCC(=O)N[C@@H](C)C(=O)N1CCC[C@H]1C(=O)N1CCC[C@H]1C(=O)N1CCC[C@H]1C(=O)N[C@@H](CO)C(N)=O (stereo partly drawn) [Compound 5] | 0.0205 | 0.138 | 0.0454
